biological target: T1, human CRTH2 (Homo sapiens, UniProt Q9Y5Y4); assay: Human CRTH2 Receptor Binding Assay (whole cell, [3H]ramatroban); design: expressed in transfected cells; host or cells: CHO-K1; settings: whole CHO-K1 cells stably expressing human CRTH2 and G-alpha16; 20 nM [3H]ramatroban; 1 hour, room temperature
T1 sequence (Q9Y5Y4 1-395): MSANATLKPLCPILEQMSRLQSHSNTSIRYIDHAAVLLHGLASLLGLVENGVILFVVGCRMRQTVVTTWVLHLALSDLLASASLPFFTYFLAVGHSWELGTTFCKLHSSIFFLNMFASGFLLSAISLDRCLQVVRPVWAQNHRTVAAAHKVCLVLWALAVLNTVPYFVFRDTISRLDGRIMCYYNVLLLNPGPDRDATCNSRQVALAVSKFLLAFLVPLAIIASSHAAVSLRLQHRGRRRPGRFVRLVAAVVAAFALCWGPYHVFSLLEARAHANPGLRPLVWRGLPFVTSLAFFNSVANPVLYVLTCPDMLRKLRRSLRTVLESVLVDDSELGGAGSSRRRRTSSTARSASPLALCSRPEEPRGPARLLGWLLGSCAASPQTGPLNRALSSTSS
From the text: A whole cell receptor binding assay using [^3H]ramatroban as the competing radioactive ligand was employed to evaluate the compound binding activity to human CRTH2. The radioactive ligand [^3H]ramatroban was synthesized according to Sugimoto et. al. (Eur. J. Pharmacol. 524, 30-37, 2005) to a specific activity of 42 Ci/mmol.
A cell line stably expressing human CRTH2 was established by transfecting CHO-K1 cells with two mammalian expression vectors that harbored human CRTH2 and G-alpha16 cDNAs, respectively, using FuGene® 6 transfection reagent (from Roche). Stable clones expressing CRTH2 were selected by staining each clone with BM16 (BD Pharmingen™ from BD Biosciences, a division of Becton, Dickinson and Company), which is a rat monoclonal antibody to human CRTH2. The cells were maintained as monolayer cultures in Ham's F-12 medium containing 10% fetal bovine serum, 100 units/mL penicillin, 100 μg/mL streptomycin, 2 mM glutamine, 0.5 mg/mL G418 (geneticin) for CRTH2, and 0.2 mg/mL hygromycin-B (for G-alpha 16). For whole cell receptor binding assay, the monolayer cells were rinsed once with PBS (phosphate buffered saline), dissociated using ethylenediaminetetraacetate (Versene™ EDTA from Lonza Inc.), and suspended in PBS containing 10 mM MgCl2 and 0.06% BSA (bovine serum albumin) at 1.5×10^6 cells/mL.
The binding reactions (0.2 mL) were performed in 96-well plates at room temperature in PBS containing 1.5×10^5 cells, 10 mM MgCl2, 0.06% BSA, 20 nM [^3H]ramatroban, and test compound at various concentrations. After 1 hour of binding reactions, the cells were harvested on GF™/B filter microplates (microtiter plates with embedded glass fiber from PerkinElmer, Inc.) and washed 5 times with PBS using a Filtermate™ Harvester (a cell harvester that harvests and washes cells from microplates from PerkinElmer, Inc.). The radioactivities bound to the cells were determined using a microplate scintillation counter (TopCount® NXT, from PerkinElmer, Inc.) after adding 50 μL of Microscint™ 20 scintillation fluid (from PerkinElmer, Inc.) to each well of the filter plates. The radioactivity from non-specific binding was determined by replacing compound with 10 μM of 15(R)-15-methyl PGD2 (from Cayman Chemical Company) in the reaction mixtures. The radioactivity bound to the cells in the absence of compound (total binding) was determined by replacing compound with 0.25% of DMSO (dimethyl sulfoxide) in the reaction mixture. Specific binding data were obtained by subtracting the radioactivity of non-specific binding from each binding data.
The IC50 value is defined as the concentration of the tested compound that is required for 50% inhibition of total specific binding. In order to calculate the IC50 value, the percent inhibition data were determined for 7 concentrations for each compound. The percent inhibition for a compound at each concentration was calculated according to the following formula, [1-(specific binding in the presence of compound)/(total specific binding)]×100. The IC50 value was then obtained by fitting the percent inhibition data to a sigmoidal dose-response (4 parameter logistic) model in the XLfit® software Excel add-in program [from ID Business Solutions Ltd., model 205, where F(x)=(A+(B−A)/(1+((C/x)^D)))].

SMILES	IC50
Cc1c(CC(=O)O)cc2ccc(F)cc2c1C(=O)N1CCN(c2ccc(C#N)cc2)CC1 [Example 2-24, {4-[4-(4-Cyano-phenyl)-piperazine-1-carbonyl]-6-fluoro-3-methyl-naphthalen-2-yl}-acetic acid]	22 nM
O=C(O)Cc1cc(OC2CCN(S(=O)(=O)c3ccc(F)cc3)CC2)c2cc(F)ccc2c1 [Example 4-8, {6-Fluoro-4-[1-(4-fluoro-benzenesulfonyl)-piperidin-4-yloxy]-naphthalen-2-yl}-acetic acid]	2.4 nM
CCC(=O)N1CCC(Oc2cc(CC(=O)O)cc3ccc(F)cc23)CC1 [Example 5-2, [6-Fluoro-4-(1-propionyl-piperidin-4-yloxy)-naphthalen-2-yl]-acetic acid]	120 nM
Cc1c(CC(=O)O)cc2ccc(F)cc2c1C(=O)N1CCN(c2ccccc2)CC1 [Example 2-4, [6-Fluoro-3-methyl-4-(4-phenyl-piperazine-1-carbonyl)-naphthalen-2-yl]-acetic acid]	59.1 nM
O=C(O)Cc1cc(OC2CCN(C(=O)Nc3ccc(F)cc3)CC2)c2cc(F)ccc2c1 [Example 6-4, {6-Fluoro-4-[1-(4-fluoro-phenylcarbamoyl)-piperidin-4-yloxy]-naphthalen-2-yl}-acetic acid]	5 nM
O=C(O)Cc1cc(OC2CCN(C(=O)c3cccc(F)c3)CC2)c2cc(F)ccc2c1 [Example 5-8, {6-Fluoro-4-[1-(3-fluoro-benzoyl)-piperidin-4-yloxy]-naphthalen-2-yl}-acetic acid]	29.8 nM
Cc1c(CC(=O)O)cc2ccc(F)cc2c1C(=O)N1CCN(S(=O)(=O)c2ccc(F)cc2F)CC1 [Example 1-17, {4-[4-(2,4-Difluoro-benzenesulfonyl)-piperazine-1-carbonyl]-6-fluoro-3-methyl-naphthalen-2-yl}-acetic acid]	3.7 nM
Cc1c(CC(=O)O)cc2ccc(F)cc2c1C(=O)N1CCN(S(=O)(=O)c2cccc(F)c2)CC1 [Example 1-16, {6-Fluoro-4-[4-(3-fluoro-benzenesulfonyl)-piperazine-1-carbonyl]-3-methyl-naphthalen-2-yl}-acetic acid]	3.1 nM
Cc1c(CC(=O)O)cc2ccc(F)cc2c1C(=O)N1CCN(S(=O)(=O)Cc2ccccc2)CC1 [Example 1-13, [6-Fluoro-3-methyl-4-(4-phenylmethanesulfonyl-piperazine-1-carbonyl)-naphthalen-2-yl]-acetic acid]	5.4 nM
Cc1c(CC(=O)O)cc2ccc(F)cc2c1C(=O)N1CCN(c2ncccn2)CC1 [Example 2-5, [6-Fluoro-3-methyl-4-(4-pyrimidin-2-yl-piperazine-1-carbonyl)-naphthalen-2-yl]-acetic acid]	276 nM
O=C(O)Cc1cc(OC2CCN(S(=O)(=O)Cc3ccccc3)CC2)c2cc(F)ccc2c1 [Example 4-10, [6-Fluoro-4-(1-phenylmethanesulfonyl-piperidin-4-yloxy)-naphthalen-2-yl]-acetic acid]	2.7 nM
Cc1c(CC(=O)O)cc2ccc(F)cc2c1C(=O)N1CCN(c2ccc(F)cc2F)CC1 [Example 2-13, {4-[4-(2,4-Difluoro-phenyl)-piperazine-1-carbonyl]-6-fluoro-3-methyl-naphthalen-2-yl}-acetic acid]	139 nM
Cc1c(CC(=O)O)cc2ccc(F)cc2c1C(=O)N1CCN(c2cc(C(F)(F)F)cc(C(F)(F)F)c2)CC1 [Example 2-11, {4-[4-(3,5-Bis-trifluoromethyl-phenyl)-piperazine-1-carbonyl]-6-fluoro-3-methyl-naphthalen-2-yl}-acetic acid]	201 nM
CS(=O)(=O)N1CCC(Oc2cc(CC(=O)O)cc3ccc(F)cc23)CC1 [Example 4-1, [6-Fluoro-4-(1-methanesulfonyl-piperidin-4-yloxy)-naphthalen-2-yl]-acetic acid]	9.3 nM
Cc1cccc(N2CCN(C(=O)c3c(C)c(CC(=O)O)cc4ccc(F)cc34)CC2)c1 [Example 2-6, [6-Fluoro-3-methyl-4-(4-m-tolyl-piperazine-1-carbonyl)-naphthalen-2-yl]-acetic acid]	81.5 nM

Now from value to compound:

IC50	SMILES
141 nM	CC(C)C(=O)N1CCC(Oc2cc(CC(=O)O)cc3ccc(F)cc23)CC1 [Example 5-3, [6-Fluoro-4-(1-isobutyryl-piperidin-4-yloxy)-naphthalen-2-yl]-acetic acid]
2.9 nM	O=C(O)Cc1cc(OC2CCN(C(=O)Cc3ccccc3)CC2)c2cc(F)ccc2c1 [Example 5-10, [6-Fluoro-4-(1-phenylacetyl-piperidin-4-yloxy)-naphthalen-2-yl]-acetic acid]
6 nM	O=C(O)Cc1cc(C(=O)N2CCN(S(=O)(=O)c3ccccc3)CC2)c2cc(C(F)(F)F)ccc2c1 [Example 1-18, [4-(4-Benzenesulfonyl-piperazine-1-carbonyl)-6-trifluoromethyl-naphthalen-2-yl]-acetic acid]
8.3 nM	Cc1c(CC(=O)O)cc2ccc(F)cc2c1C(=O)N1CCN(S(=O)(=O)c2ccc(F)cc2)CC1 [Example 1-12, {6-Fluoro-4-[4-(4-fluoro-benzenesulfonyl)-piperazine-1-carbonyl]-3-methyl-naphthalen-2-yl}-acetic acid]
25.4 nM	O=C(O)Cc1cc(OC2CCN(S(=O)(=O)C3CC3)CC2)c2cc(F)ccc2c1 [Example 4-4, [4-(1-Cyclopropanesulfonyl-piperidin-4-yloxy)-6-fluoro-naphthalen-2-yl]-acetic acid]
21.9 nM	Cc1c(CC(=O)O)cc2ccc(F)cc2c1C(=O)N1CCN(c2cc(Cl)cc(Cl)c2)CC1 [Example 2-17, {4-[4-(3,5-Dichloro-phenyl)-piperazine-1-carbonyl]-6-fluoro-3-methyl-naphthalen-2-yl}-acetic acid]
10 nM	Cc1c(CC(=O)O)cc2ccc(F)cc2c1C(=O)N1CCN(c2ccc(C(F)(F)F)cc2)CC1 [Example 2-19, {6-Fluoro-3-methyl-4-[4-(4-trifluoromethyl-phenyl)-piperazine-1-carbonyl]-naphthalen-2-yl}-acetic acid]
88.3 nM	Cc1c(CC(=O)O)cc2ccc(F)cc2c1C(=O)N1CC2(C1)CN(S(=O)(=O)Cc1ccccc1)C2 [Example 1-11, [6-Fluoro-3-methyl-4-(6-phenylmethanesulfonyl-2,6-diaza-spiro[3.3]heptane-2-carbonyl)-naphthalen-2-yl]-acetic acid]
7.2 nM	CCS(=O)(=O)N1CCN(C(=O)c2cc(CC(=O)O)cc3ccc(F)cc23)CC1 [Example 1-2, [4-(4-Ethanesulfonyl-piperazine-1-carbonyl)-6-fluoro-naphthalen-2-yl]-acetic acid]
63.1 nM	COc1cccc(N2CCN(C(=O)c3c(C)c(CC(=O)O)cc4ccc(F)cc34)CC2)c1 [Example 2-9, {6-Fluoro-4-[4-(3-methoxy-phenyl)-piperazine-1-carbonyl]-3-methyl-naphthalen-2-yl}-acetic acid]
53.3 nM	O=C(O)Cc1cc(OC2CCN(C(=O)C3CCCC3)CC2)c2cc(F)ccc2c1 [Example 5-5, [4-(1-Cyclopentanecarbonyl-piperidin-4-yloxy)-6-fluoro-naphthalen-2-yl]-acetic acid]
151 nM	Cc1c(CC(=O)O)cc2ccc(F)cc2c1C(=O)N1CCN(c2ccccc2F)CC1 [Example 2-3, {6-Fluoro-4-[4-(2-fluoro-phenyl)-piperazine-1-carbonyl]-3-methyl-naphthalen-2-yl}-acetic acid]

Reference: patent US8188090B2, “Naphthylacetic acids” (Hoffman-La Roche Inc., priority 2008, dated 2012)
